Test results as given in doi:10.1101/2021.10.04.463106, “A high throughput screening assay for inhibitors of SARS-CoV-2 pseudotyped particle entry” (bioRxiv, 2021).
Read-outs that look alike come from different tables or passages of the source.

Assays:
Experiment in all cases: microbe, parasite or virus in culture
Format in all cases: cell-based
[1] = system: SARS-CoV-2-S PP (Wuhan-Hu-1 spike)
[2] = system: SARS-CoV-2-S PP (B.1.1.7 spike variant)
[3] = system: SARS-CoV-2-S PP (B.1.351 spike variant)
[4] = Severe acute respiratory syndrome coronavirus 2, read-out: EC50, Wuhan-Hu-1 PP
[5] = Severe acute respiratory syndrome coronavirus 2, read-out: EC50, B.1.1.7 PP
[6] = Severe acute respiratory syndrome coronavirus 2, read-out: EC50, B.1.351 PP

| Structure (SMILES) | EC50 [1, 4] | EC50 [2, 5] | EC50 [3, 6] | EC50 ([1]; Severe acute respiratory syndrome coronavirus 2, read-out: EC50 in Wuhan-Hu-1 SARS-CoV-2-S PP entry assay) | shift in potency between the Wuhan-Hu-1 spike sequence and the B.1.1.7 spike variant [2] | EC50 ([2]; Severe acute respiratory syndrome coronavirus 2, read-out: EC50 in B.1.1.7 SARS-CoV-2-S PP entry assay) | EC50 ([3]; Severe acute respiratory syndrome coronavirus 2, read-out: EC50 in B.1.351 SARS-CoV-2-S PP entry assay) |
| --- | --- | --- | --- | --- | --- | --- | --- |
| CCOC(=O)[C@H]1O[C@@H]1C(=O)N[C@@H](CC(C)C)C(=O)NCCC(C)C [Aloxistatin, aloxistatin] | 800 nM | 460 nM | 1210 nM |  |  |  |  |
| CCCC[C@@H](C=O)NC(=O)[C@H](CC(C)C)NC(=O)OCc1ccccc1 [Calpeptin, calpeptin] | 870 nM | 310 nM | 1070 nM |  |  |  |  |
| COc1cc(N2CCC(N3CCN(C)CC3)CC2)ccc1Nc1ncc(Cl)c(Nc2ccccc2P(C)(C)=O)n1 [Brigatinib, brigatinib] | 38 nM | 54 nM | 23 nM |  |  |  |  |
| Cc1cccc(/C=N/Nc2cc(N3CCOCC3)nc(OCCc3ccccn3)n2)c1 [Apilimod, apilimod] |  |  |  | 9.2 nM | 7 fold | 1.3 nM | 4.7 nM |
